{
  "source": "the supplement of paper PMC4862054",
  "data": [
    {"tested_on": "MDA-MB-436", "experiment": "normalised response (% of control), CellTiter-Glo; higher = more viable cells (100 = DMSO, 0 = benzethonium chloride kill control)", "conditions": "incubation time: 72 h", "protocol": "(§1)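 DSRT, 72 h incubation, CellTox Green / CellTiter-Glo readout. Signal is normalised to DMSO and benzethonium chloride controls. Value is the normalised response at dose 3.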", "units": {"normalised response": "%"}, "values": [
      {"smiles": "CS(=O)(=O)CCNCc1ccc(-c2ccc3ncnc(Nc4ccc(OCc5cccc(F)c5)c(Cl)c4)c3c2)o1", "note": "[Lapatinib] (10 nM)", "normalised response": 100},
      {"smiles": "Cc1cc(C(C)Nc2ccccc2)c2nc(N3CCOCC3)cc(=O)n2c1", "note": "(stereo not given) [TGX-221] (100 nM)", "normalised response": 94},
      {"smiles": "CCS(=O)(=O)c1cccc(-c2cc(C(=O)NC3CCN(C)CC3)c(C)c3[nH]c4ncc(C)cc4c23)c1", "note": "[TAK-901] (10 nM)", "normalised response": 110},
      {"smiles": "O=c1[nH]c(=O)n([C@H]2C[C@H](O)[C@@H](CO)O2)cc1F", "note": "[Floxuridine] (100 nM)", "normalised response": 74.6}
    ]},
    {"tested_on": "MDA-MB-453", "experiment": "normalised response (% of control), CellTiter-Glo; higher = more viable cells (100 = DMSO, 0 = benzethonium chloride kill control)", "conditions": "incubation time: 72 h", "protocol": "as §1", "units": {"normalised response": "%"}, "values": [
      {"smiles": "CC(C)(C)c1cc(NC(=O)Nc2ccc(-c3cn4c(n3)sc3cc(OCCN5CCOCC5)ccc34)cc2)no1", "note": "[Quizartinib] (10 nM)", "normalised response": 101},
      {"smiles": "CN(c1ccccc1CNc1nc(Nc2ccc3c(c2)CC(=O)N3)ncc1C(F)(F)F)S(C)(=O)=O", "note": "(100 nM)", "normalised response": 90.4},
      {"smiles": "Nc1nccc(-c2c(-c3ccc(F)cc3)ncn2C2CCCCC2)n1", "note": "(100 nM)", "normalised response": 104},
      {"smiles": "COC1=C2C[C@@H](C)C[C@H](OC)[C@H](O)[C@@H](C)/C=C(\\C)[C@H](OC(N)=O)[C@@H](OC)/C=C\\C=C(/C)C(=O)NC(=CC1=O)C2=O", "note": "[Geldanamycin] (100 nM)", "normalised response": 113},
      {"smiles": "Cn1c(=O)c(F)c(Nc2ccc(I)cc2F)c2c(=O)n(C[C@@H](O)CO)cnc21", "note": "[TAK-733] (10 nM)", "normalised response": 115},
      {"smiles": "CS(=O)(=O)CCNCc1ccc(-c2ccc3ncnc(Nc4ccc(OCc5cccc(F)c5)c(Cl)c4)c3c2)o1", "note": "[Lapatinib] (10 nM)", "normalised response": 105},
      {"smiles": "Cc1cc(C(C)Nc2ccccc2)c2nc(N3CCOCC3)cc(=O)n2c1", "note": "(stereo not given) [TGX-221] (100 nM)", "normalised response": 93.2},
      {"smiles": "CCS(=O)(=O)c1cccc(-c2cc(C(=O)NC3CCN(C)CC3)c(C)c3[nH]c4ncc(C)cc4c23)c1", "note": "[TAK-901] (10 nM)", "normalised response": 103},
      {"smiles": "O=c1[nH]c(=O)n([C@H]2C[C@H](O)[C@@H](CO)O2)cc1F", "note": "[Floxuridine] (100 nM)", "normalised response": 116}
    ]},
    {"tested_on": "MDA-MB-468", "experiment": "normalised response (% of control), CellTiter-Glo; higher = more viable cells (100 = DMSO, 0 = benzethonium chloride kill control)", "conditions": "incubation time: 72 h", "protocol": "as §1", "units": {"normalised response": "%"}, "values": [
      {"smiles": "CC(C)(C)c1cc(NC(=O)Nc2ccc(-c3cn4c(n3)sc3cc(OCCN5CCOCC5)ccc34)cc2)no1", "note": "[Quizartinib] (10 nM)", "normalised response": 103},
      {"smiles": "CN(c1ccccc1CNc1nc(Nc2ccc3c(c2)CC(=O)N3)ncc1C(F)(F)F)S(C)(=O)=O", "note": "(100 nM)", "normalised response": 88.5},
      {"smiles": "Nc1nccc(-c2c(-c3ccc(F)cc3)ncn2C2CCCCC2)n1", "note": "(100 nM)", "normalised response": 96.2},
      {"smiles": "COC1=C2C[C@@H](C)C[C@H](OC)[C@H](O)[C@@H](C)/C=C(\\C)[C@H](OC(N)=O)[C@@H](OC)/C=C\\C=C(/C)C(=O)NC(=CC1=O)C2=O", "note": "[Geldanamycin] (100 nM)", "normalised response": 106},
      {"smiles": "Cn1c(=O)c(F)c(Nc2ccc(I)cc2F)c2c(=O)n(C[C@@H](O)CO)cnc21", "note": "[TAK-733] (10 nM)", "normalised response": 92.6},
      {"smiles": "CS(=O)(=O)CCNCc1ccc(-c2ccc3ncnc(Nc4ccc(OCc5cccc(F)c5)c(Cl)c4)c3c2)o1", "note": "[Lapatinib] (10 nM)", "normalised response": 99.1},
      {"smiles": "Cc1cc(C(C)Nc2ccccc2)c2nc(N3CCOCC3)cc(=O)n2c1", "note": "(stereo not given) [TGX-221] (100 nM)", "normalised response": 86.4},
      {"smiles": "CCS(=O)(=O)c1cccc(-c2cc(C(=O)NC3CCN(C)CC3)c(C)c3[nH]c4ncc(C)cc4c23)c1", "note": "[TAK-901] (10 nM)", "normalised response": 94.7},
      {"smiles": "O=c1[nH]c(=O)n([C@H]2C[C@H](O)[C@@H](CO)O2)cc1F", "note": "[Floxuridine] (100 nM)", "normalised response": 86.1}
    ]},
    {"tested_on": "MFM-223", "experiment": "normalised response (% of control), CellTiter-Glo; higher = more viable cells (100 = DMSO, 0 = benzethonium chloride kill control)", "conditions": "incubation time: 72 h", "protocol": "as §1", "units": {"normalised response": "%"}, "values": [
      {"smiles": "CC(C)(C)c1cc(NC(=O)Nc2ccc(-c3cn4c(n3)sc3cc(OCCN5CCOCC5)ccc34)cc2)no1", "note": "[Quizartinib] (10 nM)", "normalised response": 105},
      {"smiles": "CN(c1ccccc1CNc1nc(Nc2ccc3c(c2)CC(=O)N3)ncc1C(F)(F)F)S(C)(=O)=O", "note": "(100 nM)", "normalised response": 95.5},
      {"smiles": "Nc1nccc(-c2c(-c3ccc(F)cc3)ncn2C2CCCCC2)n1", "note": "(100 nM)", "normalised response": 102},
      {"smiles": "COC1=C2C[C@@H](C)C[C@H](OC)[C@H](O)[C@@H](C)/C=C(\\C)[C@H](OC(N)=O)[C@@H](OC)/C=C\\C=C(/C)C(=O)NC(=CC1=O)C2=O", "note": "[Geldanamycin] (100 nM)", "normalised response": 115},
      {"smiles": "Cn1c(=O)c(F)c(Nc2ccc(I)cc2F)c2c(=O)n(C[C@@H](O)CO)cnc21", "note": "[TAK-733] (10 nM)", "normalised response": 102},
      {"smiles": "CS(=O)(=O)CCNCc1ccc(-c2ccc3ncnc(Nc4ccc(OCc5cccc(F)c5)c(Cl)c4)c3c2)o1", "note": "[Lapatinib] (10 nM)", "normalised response": 109},
      {"smiles": "Cc1cc(C(C)Nc2ccccc2)c2nc(N3CCOCC3)cc(=O)n2c1", "note": "(stereo not given) [TGX-221] (100 nM)", "normalised response": 94},
      {"smiles": "CCS(=O)(=O)c1cccc(-c2cc(C(=O)NC3CCN(C)CC3)c(C)c3[nH]c4ncc(C)cc4c23)c1", "note": "[TAK-901] (10 nM)", "normalised response": 109},
      {"smiles": "O=c1[nH]c(=O)n([C@H]2C[C@H](O)[C@@H](CO)O2)cc1F", "note": "[Floxuridine] (100 nM)", "normalised response": 113}
    ]},
    {"tested_on": "SK-BR-3", "experiment": "normalised response (% of control), CellTiter-Glo; higher = more viable cells (100 = DMSO, 0 = benzethonium chloride kill control)", "conditions": "incubation time: 72 h", "protocol": "as §1", "units": {"normalised response": "%"}, "values": [
      {"smiles": "CC(C)(C)c1cc(NC(=O)Nc2ccc(-c3cn4c(n3)sc3cc(OCCN5CCOCC5)ccc34)cc2)no1", "note": "[Quizartinib] (10 nM)", "normalised response": 104},
      {"smiles": "CN(c1ccccc1CNc1nc(Nc2ccc3c(c2)CC(=O)N3)ncc1C(F)(F)F)S(C)(=O)=O", "note": "(100 nM)", "normalised response": 88.3},
      {"smiles": "Nc1nccc(-c2c(-c3ccc(F)cc3)ncn2C2CCCCC2)n1", "note": "(100 nM)", "normalised response": 97.3},
      {"smiles": "COC1=C2C[C@@H](C)C[C@H](OC)[C@H](O)[C@@H](C)/C=C(\\C)[C@H](OC(N)=O)[C@@H](OC)/C=C\\C=C(/C)C(=O)NC(=CC1=O)C2=O", "note": "[Geldanamycin] (100 nM)", "normalised response": 105},
      {"smiles": "Cn1c(=O)c(F)c(Nc2ccc(I)cc2F)c2c(=O)n(C[C@@H](O)CO)cnc21", "note": "[TAK-733] (10 nM)", "normalised response": 107},
      {"smiles": "CS(=O)(=O)CCNCc1ccc(-c2ccc3ncnc(Nc4ccc(OCc5cccc(F)c5)c(Cl)c4)c3c2)o1", "note": "[Lapatinib] (10 nM)", "normalised response": 87.1},
      {"smiles": "Cc1cc(C(C)Nc2ccccc2)c2nc(N3CCOCC3)cc(=O)n2c1", "note": "(stereo not given) [TGX-221] (100 nM)", "normalised response": 99.7},
      {"smiles": "CCS(=O)(=O)c1cccc(-c2cc(C(=O)NC3CCN(C)CC3)c(C)c3[nH]c4ncc(C)cc4c23)c1", "note": "[TAK-901] (10 nM)", "normalised response": 108},
      {"smiles": "O=c1[nH]c(=O)n([C@H]2C[C@H](O)[C@@H](CO)O2)cc1F", "note": "[Floxuridine] (100 nM)", "normalised response": 71.4}
    ]}
  ]
}
